pIC50: −log10 of the molar value. Read-outs that look alike come from different tables or passages of the source. Each block holds one molecule with its values, some of them ahead of it.
Columns and labels:
[1] = tested on: IL-2; assay: IL-2 production in thymocytes stimulated with ConA and IL-1 (ELISA); assay type: cell-based, murine; conditions: ConA and IL-1, 4 days
Excerpt: Thymocytes were stimulated with ConA and IL-1 for 4 days with or without adding inventive compounds to the culture media. The supernatants were removed and assayed by ELISA for IL-2 levels by a commercially available kit.

[2] = tested on: 72 kD MMP; assay: Metalloproteinase production in TNF-α stimulated THP-1 cells (zymogram); assay type: cell-based, human; conditions: 2.5 µM, TNF-α 18 hours
Experimental: (§1) Another assay measures an ability of the inventive compounds, as represented by compound no. 50, to inhibit metalloproteinase production in cancer cells. In the assay protocol, THP-1 human leukemia cells (1-2 x 10^6/35 mm dish) were plated in RPMI medium with 0.5% serum. Inventive compound no. 50 was added at 2.5 µM. Following incubation for 1 hour, TNF-α was added and incubated for 18 hours. The supernatants from control and treated plates were collected and protease activity was determined in gelatin gels (zymogram) after electrophoretic protein separation. […] The presence of compound no. […] Compound no. 50, representative of compounds of the invention, is capable of substantially reducing metastatic potential of cancer cells by blocking metalloprotease production.

[3] = tested on: 92 kD matrix metalloprotease (MMP); assay: as above; assay type: cell-based, human; conditions: 2.5 µM, TNF-α 18 hours
Experimental: as §1

[4] = tested on: murine splenocyte proliferation; assay: Splenocyte (B cell) proliferation stimulated by anti-mu/anti-IgM and IL-4; assay type: cell-based; conditions: Mus musculus, anti-IgM antibodies (10 µg/ml) and murine IL-4 (12.5 ng/ml)
Experimental: This example illustrates inhibitive effects of compounds nos. 27 and 28 on murine splenocyte proliferation stimulated by anti-mu ([…]) and interleukin-4 (IL-4, 12.5 ng/ml). This in vitro assay, described above, is indicative of immune-suppressive/autoimmune treatment assay emphasizing humoral or B cell immune response. The inventive compound was added to the cells at the doses indicated two hours prior to activation with anti-mu and IL-4. Both compounds nos. 27 and 28 inhibited splenocyte proliferation in a dose-response manner. IC50 values for compounds nos. Background counts were less than 200 cpm.
In figure 57, results shown illustrate that inventive compound no. 45 inhibits B cell proliferation. Murine splenocytes were stimulated with anti-IgM antibodies (10 µg/ml) and murine IL-4 (12.5 ng/ml). Cells were pulsed with ^3HTdR at 44 hours, harvested 4 hours later, and the incorporation of ^3H-TdR was determined by liquid scintillation.

[5] = tested on: IL-2 (alpha chain CD25) receptor; assay: IL-2 receptor expression on anti-CD3 stimulated splenocytes (flow cytometry); assay type: cell-based, mouse; conditions: anti-CD3 1 µg/ml, 24 hours, 1 µM
Experimental: This investigation illustrates IL-2 (alpha chain CD25) receptor expression on mouse splenoyctes. The IL-2 receptor is not expressed on resting T-cells, but is rapidly-induced by certain stimulants, e.g. antigen recognition or treatment with ConA or antibodies to CD3 (anti-CD3). IL-2-dependent proliferation requires IL-2 receptor expression. […] 49 (1 µM). Following overnight incubation, the splenocytes were stained with a fluoresceinated anti-IL-2 receptor antibody and fluorescence measured by flow cytometry. Figures 5A and 5B are frequency histograms of measurements for 20,000 cells per sample.
In another assay, inventive compound no. […] Murine splenocytes were activated for 24 hours with anti-CD3 (1 µg/ml), stained with a fluorescent antibody to CD25 and analyzed by flow cytometry.

[6] = tested on: human mixed leukocyte reaction (MLR); assay: Mixed leukocyte reaction (MLR), two HLA disparate individuals; assay type: cell-based; conditions: 144 h, 6 days co-culture
Experimental: Figures 50A and 50B illustrate that compound no. 45 inhibits a murine mixed tumor lymophocyte culture (MTLC) and a human mixed leukocyte reaction (MLR). In the MTLC, splenocytes were stimulated (co-culture) with an alloantigen, B cell tumor target cell line (2PK3) in the presence or absence of compound no. 45. Cells were stimulated for 3 days, ^3H-TdR was added and the cells were harvested 4 hours later. Incorporation of ^3H-TdR was determined by liquid scintillation. Background counts were 1000-1200 CPM. For the human MLR, purified peripheral lymphocytes from two HLA disparate individuals were co-cultured for 6 days with or without compound no. 45. On the 7th day the cultures were pulsed with ^3HTdR for 24 hours and counted by scintillation.

[7] = tested on: murine splenocytes; assay: Anti-CD3 stimulated splenocyte proliferation; assay type: cell-based; conditions: Mus musculus
Experimental: In the assay, murine splenocytes were activated with a monoclonal antibody directed against CD3 (1 µg/ml), resulting in an IL-2 mediated proliferative response.
45 (1 µM). […] The supernatants were harvested and assayed for cytokine levels using commercial ELISAs for proliferation.

[8] = tested on: murine splenocytes; assay: Splenocytes stimulated with anti-CD3 and anti-CD28 antibodies: proliferation and cytokine release; assay type: cell-based
Excerpt: Figures 58A and 58B illustrate that inventive compound no. […] Murine splenocytes were stimulated with a mixture of anti-CD3 and anti-CD28 monoclonal antibodies. Inventive compound no.
Figures 58C and 58D illustrate that compound no. […] Procedurally, murine splenocytes were stimulated with a mixture of anti-CD3/CD28 antibodies. Inventive compound no. […] Addition of an anti-IL-2 receptor alpha subunit antibody and an anti-IL-2 receptor beta subunit antibody to the cultures inhibited both proliferation and the release of IFN-γ (figure 60D).

[9] = tested on: human umbilical vein endothelial cell line (HUVEC); assay: VEGF-induced proliferation of HUVEC; assay type: cell-based
Experimental: This example illustrates an investigation of inhibitory effects of compound no. 58 on Vascular Endothelial Growth Factor (VEGF)-induced proliferation in a human umbilical vein endothelial cell line (HUVEC). In this assay procedure, cells were grown in reduced serum (0.5% fetal calf serum) for 24 hours prior to stimulating with various concentrations of VEGF. […] Compound no.
(§2) As illustrated in figures 67A and 67B, inventive compound no. 58 inhibited VEGF-induced proliferation in HUVEC and EGF-induced proliferation in Swiss/3T3 cells, respectively. Procedurally, HUVEC were placed in 0.5% serum containing medium prior to stimulation with various concentrations of VEGF, with or without inventive compound no. 58 (5 µM). Twenty four hours later the cells were pulsed with ^3H-TdR and 4 hours later harvested and counted by scintillation. The IC50 for inhibition was approximately 50-100 nM. Swiss 3T3 cells were stimulated with 20 ng/ml EGF and 24 hours later harvested and counted by scintillation.

[10] = tested on: Swiss/3T3 cells; assay: EGF-induced proliferation in Swiss/3T3 cells; assay type: cell-based; conditions: 20 ng/ml EGF
Experimental: as §2

[11] = tested on: HUVEC; assay: VEGF-induced HUVEC migration, Matrigel invasion assay system; assay type: cell-based; conditions: Homo sapiens, 50 ng/ml VEGF
Excerpt: 58. HUVEC were placed in a Matrigel invasion assay system (Becton Dickinson) and VEGF-induced migration assessed with or without varying concentrations of inventive compound no. 58.

Compound: CCCCCCCCCCCCNCC(O)CCCCCCCCCn1c(=O)c2c(ncn2C)n(C)c1=O (stereo not drawn) [compound no. 50, 1-(11-Dodecylamino-10-hydroxyundecyl)-3,7-dmethylxanthine]
IL-2 production [1]: do not inhibit production of IL-2 | TNF-α-stimulated expression of 72 kD MMP [2]: blocked the TNF-α-stimulated expression of both the 92 and 72 kD MMPs | TNF-α-stimulated expression of 92 kD MMP [3]: blocked the TNF-α-stimulated expression of both the 92 and 72 kD MMPs

pIC50 [6]: ~6.30
Compound: CCCCCCCCNCC(O)CCCCCCCCCn1c(=O)c2c(ncn2C)n(C)c1=O (stereo not drawn) [compound no. 45]
pIC50 [4]: 5.92 | CD-25 receptor upregulation [5]: did not inhibit CD-25 (p55) receptor upregulation by anti-CD3 | pIC50 ([7]; anti-CD3 (1 µg/ml), read-out: IC50): ~6.07 | pIC50 ([7]; read-out: concentration approximately equal to IC50 value): ~6.00 | CD28-mediated release of IL-2 [8]: did not inhibit the CD28-mediated release of IL-2 | T cell proliferation [8]: inhibited T cell proliferation in this system | release of IFN-γ [8]: inhibited release of IFN-γ

Compound: COc1cc(CNCC(O)CCCCCCCCCn2c(=O)c3c(ncn3C)n(C)c2=O)cc(OC)c1OC (stereo not drawn) [compound no. 58, 1-[11-(3,4,5-Trimethoxybenzylamino)-10-hydroxyundecyl]-3,7-dimethylxanthine]
inhibition of VEGF-induced proliferation ([9]; 5 µM): inhibited VEGF-induced proliferation at all concentrations of VEGF tested | pIC50 ([9]; Homo sapiens, HUVEC, VEGF, 0.5% serum): 7.00 to 7.30 | pIC50 [10]: ~7.70 | pIC50 [11]: 6.70 to 7.00
